Assay: Phase 1 multiple ascending dose, dose titration study with healthy subjects (adverse events, tolerated dose)
Type: in vivo, human
Experimental: This study was a phase 1, randomized, double-blind, placebo-controlled, multiple-dose, dose titration study. A titration interval of 6 days was employed, with each dose being administered for at least 5 days. One goal was to determine the effect of dose titration on adverse effects.
In each of two subject cohorts, Cohort 1 and Cohort 2, subjects were treated at each dose level for duration of 5 days with exception of the last dose level which included 7 days of treatment.
The protocol was amended to provide for an additional cohort, Cohort 3, in order to evaluate a different dose escalation regimen, as disclosed below.
Cohorts 1 and 2: Two groups of 15 subjects were enrolled and randomized to receive placebo (5 subjects per Cohort) or a starting dose of 0.05 mg Compound 1 (10 subjects per Cohort) on Day I. Once daily (q.d.) dosing continued through 5 days. If tolerated, the next dose escalation (placebo or 0.1 mg q.d. Compound 1) occurred on Day 6 and this dose was administered daily through Day 10.
Subsequent dose escalations were to occur in the same manner every 6th day for up to 3 additional dose escalations if tolerated (placebo or 0.2, 0.3, and 0.4 mg Compound 1) with the final dose maintained for a duration of 7 days. The dose could be decreased (“de-escalated”) or increased (“re-escalated”) based on assessment of safety and tolerability.
Cohort 3: One group of 25 subjects (S placebo and 20 active) were enrolled and randomized to receive a starting dose of 0.01 mg Compound 1 twice daily or placebo on Day 1. Twice daily dosing continued through 5 days. If tolerated, the next dose escalation (placebo or Compound 1 0.02 mg twice daily) occurred on Day 6 and this dose was administered daily through Day 10. Subsequent dose escalations were to occur in the same manner every 6th day for up to 4 additional dose escalations if tolerated (placebo or 0.03, 0.04. 0.05, and 0.07 mg twice daily Compound 1). The dose could be decreased (“de-escalated”) or increased (“re-escalated”) based on assessment of safety and tolerability. The doses tested in this cohort were 0.01, 0.02, 0.03, 0.04, 0.05, and 0.07 mg administered twice daily for a total daily dose of 0.02, 0.04, 0.06, 0.08, 0.1, and 0.14 mg, respectively.
Compound 1 capsules were provided as 0.01 mg (all Cohorts) and 0.1 mg (Cohorts 1 and 2 only) strengths.

[1] = Cohort 3, twice daily, 0.07 mg (N = 4)
[2] = Cohort 3, twice daily, Total (all doses) (N = 20)
[3] = Cohorts 1 and 2, once daily, 0.03 mg (N = 4)
[4] = Cohorts 1 and 2, once daily, 0.05 mg (N = 20)
[5] = Cohorts 1 and 2, once daily, 0.1 mg (N = 16)
[6] = Cohorts 1 and 2, once daily, 0.2 mg (N = 5)
[7] = Cohorts 1 and 2, once daily, 0.3 mg (N = 1)
[8] = Cohorts 1 and 2, once daily, 0.4 mg (N = 1)
[9] = Cohorts 1 and 2, once daily, Total (all doses) (N = 20)
[10] = Cohorts 1 and 2, 0.05 mg once daily

## O=C(O)COC[C@H]1CC[C@H](COC(=O)N(c2ccccc2)c2ccc(Cl)cc2)CC1 [Compound 1, 2-(((1r,4r)-4-(((4-chlorophenyl)(phenyl)carbamoyloxy)methyl)cyclohexyl)methoxy)acetic acid]
[1]
  Adverse Events (no. of subjects) leading to Decrease of Dose: Priapism: 0 subjects
  Adverse Events (no. of subjects) leading to Decrease of Dose: Vomiting: 0 subjects
[2]
  Adverse Events (no. of subjects) leading to Decrease of Dose: Abdominal pain: 2 subjects
  Adverse Events (no. of subjects) leading to Decrease of Dose: Arthralgia: 2 subjects
  Adverse Events (no. of subjects) leading to Decrease of Dose: Chest discomfort: 1 subjects
  Adverse Events (no. of subjects) leading to Decrease of Dose: Chest pain: 1 subjects
  Adverse Events (no. of subjects) leading to Decrease of Dose: Diarrhoea: 2 subjects
  Adverse Events (no. of subjects) leading to Decrease of Dose: Dizziness: 3 subjects
  Adverse Events (no. of subjects) leading to Decrease of Dose: Headache: 10 subjects
  Adverse Events (no. of subjects) leading to Decrease of Dose: Jaw pain: 1 subjects
  Adverse Events (no. of subjects) leading to Decrease of Dose: Myalgia: 4 subjects
  Adverse Events (no. of subjects) leading to Decrease of Dose: Nausea: 5 subjects
  Adverse Events (no. of subjects) leading to Decrease of Dose: Palpitations: 1 subjects
  Adverse Events (no. of subjects) leading to Decrease of Dose: Priapism: 1 subjects
  Adverse Events (no. of subjects) leading to Decrease of Dose: Vomiting: 1 subjects
Cohort 3, 0.01 mg twice daily
  Tolerability of the starting dose: all of the subjects were able to tolerate
Cohort 3, 0.02 mg twice daily
  Tolerability of the first escalation: all of the subjects were able to tolerate
Cohort 3, 0.03 mg twice daily
  Subjects who completed the study at the dose: Five
Cohort 3, 0.04 mg twice daily
  Subjects able to escalate to the dose level through study completion: Two
Cohort 3, 0.05 mg
  Subjects able to escalate to the dose level through study completion: Five
Cohort 3, 0.07 mg twice daily
  Tolerability of the dose: tolerated through study completion
Cohort 3, 0.07 mg twice daily, highest dose level
  Subjects able to escalate to the dose: Two
Cohort 3, Day 20
  Subjects who discontinued treatment due to an adverse event: One
Cohorts 1 and 2
  Subjects who received 0.03 mg as highest dose for at least 3 days: 0.03 mg-17 subjects
  Subjects who received 0.1 mg as highest dose for at least 3 days: 0.1 mg-8 subjects
  Subjects who received 0.2 mg as highest dose for at least 3 days: 0.2 mg-1 subjects
  Subjects who received 0.30 mg as highest dose for at least 3 days: 0.30 mg-1 subject
  Subjects with Final Compound 1 Total Daily Dose of 0.03 mg: 0.03 mg-3 subjects
  Subjects with Final Compound 1 Total Daily Dose of 0.05 mg: 0.05 mg-9 subjects
  Subjects with Final Compound 1 Total Daily Dose of 0.10 mg: 0.10 mg-7 subjects
  Subjects with Final Compound 1 Total Daily Dose of 0.30 mg: 0.30 mg-1 subject
[3]
  Adverse Events (no. of subjects) leading to Decrease of Dose: Chest pain: 0 subjects
  Adverse Events (no. of subjects) leading to Decrease of Dose: Diarrhoea: 0 subjects
  Adverse Events (no. of subjects) leading to Decrease of Dose: Erythema: 0 subjects
  Adverse Events (no. of subjects) leading to Decrease of Dose: Headache: 0 subjects
  Adverse Events (no. of subjects) leading to Decrease of Dose: Jaw pain: 0 subjects
  Adverse Events (no. of subjects) leading to Decrease of Dose: Nausea: 0 subjects
  Adverse Events (no. of subjects) leading to Decrease of Dose: Vomiting: 0 subjects
[4]
  Adverse Events (no. of subjects) leading to Decrease of Dose: Chest pain: 0 subjects
  Adverse Events (no. of subjects) leading to Decrease of Dose: Diarrhoea: 1 subjects
  Adverse Events (no. of subjects) leading to Decrease of Dose: Erythema: 0 subjects
  Adverse Events (no. of subjects) leading to Decrease of Dose: Headache: 2 subjects
  Adverse Events (no. of subjects) leading to Decrease of Dose: Jaw pain: 0 subjects
  Adverse Events (no. of subjects) leading to Decrease of Dose: Nausea: 1 subjects
  Adverse Events (no. of subjects) leading to Decrease of Dose: Vomiting: 4 subjects
[5]
  Adverse Events (no. of subjects) leading to Decrease of Dose: Chest pain: 1 subjects
  Adverse Events (no. of subjects) leading to Decrease of Dose: Diarrhoea: 0 subjects
  Adverse Events (no. of subjects) leading to Decrease of Dose: Erythema: 0 subjects
  Adverse Events (no. of subjects) leading to Decrease of Dose: Headache: 5 subjects
  Adverse Events (no. of subjects) leading to Decrease of Dose: Jaw pain: 1 subjects
  Adverse Events (no. of subjects) leading to Decrease of Dose: Nausea: 1 subjects
  Adverse Events (no. of subjects) leading to Decrease of Dose: Vomiting: 2 subjects
[6]
  Adverse Events (no. of subjects) leading to Decrease of Dose: Chest pain: 0 subjects
  Adverse Events (no. of subjects) leading to Decrease of Dose: Diarrhoea: 0 subjects
  Adverse Events (no. of subjects) leading to Decrease of Dose: Erythema: 0 subjects
  Adverse Events (no. of subjects) leading to Decrease of Dose: Headache: 1 subjects
  Adverse Events (no. of subjects) leading to Decrease of Dose: Jaw pain: 0 subjects
  Adverse Events (no. of subjects) leading to Decrease of Dose: Nausea: 2 subjects
  Adverse Events (no. of subjects) leading to Decrease of Dose: Vomiting: 2 subjects
[7]
  Adverse Events (no. of subjects) leading to Decrease of Dose: Chest pain: 0 subjects
  Adverse Events (no. of subjects) leading to Decrease of Dose: Diarrhoea: 0 subjects
  Adverse Events (no. of subjects) leading to Decrease of Dose: Erythema: 0 subjects
  Adverse Events (no. of subjects) leading to Decrease of Dose: Headache: 0 subjects
  Adverse Events (no. of subjects) leading to Decrease of Dose: Jaw pain: 0 subjects
  Adverse Events (no. of subjects) leading to Decrease of Dose: Nausea: 0 subjects
  Adverse Events (no. of subjects) leading to Decrease of Dose: Vomiting: 0 subjects
[8]
  Adverse Events (no. of subjects) leading to Decrease of Dose: Chest pain: 0 subjects
  Adverse Events (no. of subjects) leading to Decrease of Dose: Diarrhoea: 0 subjects
  Adverse Events (no. of subjects) leading to Decrease of Dose: Erythema: 1 subjects
  Adverse Events (no. of subjects) leading to Decrease of Dose: Headache: 0 subjects
  Adverse Events (no. of subjects) leading to Decrease of Dose: Jaw pain: 0 subjects
  Adverse Events (no. of subjects) leading to Decrease of Dose: Nausea: 0 subjects
  Adverse Events (no. of subjects) leading to Decrease of Dose: Vomiting: 0 subjects
[9]
  Adverse Events (no. of subjects) leading to Decrease of Dose: Chest pain: 1 subjects
  Adverse Events (no. of subjects) leading to Decrease of Dose: Diarrhoea: 1 subjects
  Adverse Events (no. of subjects) leading to Decrease of Dose: Erythema: 1 subjects
  Adverse Events (no. of subjects) leading to Decrease of Dose: Headache: 8 subjects
  Adverse Events (no. of subjects) leading to Decrease of Dose: Jaw pain: 1 subjects
  Adverse Events (no. of subjects) leading to Decrease of Dose: Nausea: 4 subjects
  Adverse Events (no. of subjects) leading to Decrease of Dose: Vomiting: 8 subjects
[10]
  Subjects unable to tolerate the starting dose (number): three
  Subjects unable to tolerate the starting dose (percent): 15%
Cohorts 1 and 2, 0.2 mg once daily
  Subjects who tolerated the dose: One
Cohorts 1 and 2, 0.4 mg once daily, highest dose administered (one subject)
  Tolerability of the dose: not tolerated
Cohorts 1 and 2, Day 1
  Subjects who withdrew: One
Within the Compound 1 group
  AEs considered moderate in intensity: 95%
  AEs deemed by the investigator to be probably related to study drug: 90%

From US12239627B2, “Method of treating conditions related to the PGI2 receptor” (Arena Pharmaceuticals, Inc., priority 2014, dated 2025)
